Consider 36 compounds from PubChem BioAssay (NCI).

What all share (assay): DTP human tumour cell line panel, 48 h
The test system of assay [1] is M19-MEL melanoma.
Assay [2] deals with SNB-78 CNS.
Assay [3] relates to LXFL 529 NSCLC.
The subject of assay [4] is A549 NSCLC.
For assay [5], the system named is MALME-3M melanoma.
Assay [6] concerns SR leukemia.
In assay [7] the test system is KM20L2 colon.
For assay [8], the system named is DLD-1 colon.
Assay [9] relates to DMS 273 small cell lung.
The test system of assay [10] is XF 498 CNS.
In assay [11] the test system is DMS 114 small cell lung.
Assay [12] concerns RXF-631 renal.
Assay [13] deals with HOP-18 NSCLC.
The test system of assay [14] is BT-549 breast.
The subject of assay [15] is SN12K1 renal.

The structures appear in SMILES notation.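 Briefly, cells in 96-well plates were exposed to five compound concentrations for 48 h, and endpoints were estimated by linear interpolation. At the GI50, growth is halved. The concentration for full growth arrest is given as TGI.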

As to `N=C1C(=N)c2ccccc2-c2ccccc21.[Cl-].[Ru+2].c1cnc2c(c1)ccc1cccnc12.c1cnc2c(c1)ccc1cccnc12`, the GI50 (as a rule, the concentration that inhibits growth by half) in [1] was 24.6 µM; in [2] it was 39.2 µM; in assay [3], 18.9 µM; in assay [7] it was 34.5 µM. The concentration for total growth inhibition (TGI) (as a rule, the concentration at which net growth stops) was over 100 µM in assay [1]; over 100 µM in assay [2]; 55.7 µM in [3]; over 100 µM in assay [4]; 73.6 µM in assay [5]; over 100 µM in assay [6]. In addition, the TGI in assay [7] came to 92.5 µM.
`CCN(CC)C(=O)c1cc(OC(C)C)ccc1-c1c(C)cc(OC(C)C)c(OC)c1OC`: the TGI in assay [8] was over 100 µM; in assay [9], over 100 µM; in assay [4], over 100 µM; in assay [5], over 100 µM; in [10], 73.9 µM; in [6] it was over 100 µM. Moreover, the TGI in [11] and in assay [7] was over 100 µM throughout.
Take `CC(C)=CCc1c(O)cc(O)c2c1OC(c1ccc(O)cc1)C(O)C2=O` (stereo unspecified): the TGI in [1] was over 100 µM; in assay [2], 95.3 µM; in assay [8] it was over 100 µM; in assay [3], 86.9 µM; in assay [4], 80.8 µM; in [12] it was 97.9 µM. Further, the TGI in assay [13] is 43.4 µM; in assay [5], 70.4 µM; in assay [10], 70.3 µM; in assay [11], over 100 µM; in [7], 32.5 µM.
As for `COc1cc(C(=O)NNC(=O)c2cc(Br)ccc2NC(=O)c2cccs2)cc(OC)c1OC`, the concentration for total growth inhibition (TGI) in assay [4] is 61.3 µM; in assay [5] it was 86.1 µM; in assay [6], over 100 µM; in [14], over 100 µM.
With `O=C(CSc1ncccn1)N/N=C/c1ccccc1OCc1ccccc1`, the TGI in [4] was over 100 µM; in assay [5], over 100 µM; in assay [6], 29.5 µM; in assay [14], 70.4 µM.
In the case of `COc1cc(C2C3=C(COC3=O)OC(C)(C)Oc3cc4c(cc32)OCO4)cc(OC)c1O` (stereo unspecified), the TGI in assay [4] is over 76.8 µM; in assay [5], over 100 µM; in assay [6], over 100 µM; in [14], over 100 µM.
Consider `CC(NC(=O)OCc1ccccc1)NC(=O)OC(C)(C)C` (stereo unspecified), for which the concentration for total growth inhibition (TGI) in assay [4], in assay [5], in [6] and in [14] was over 100 µM each time.
Consider `CC(=O)OC1C=C(C=O)C(O)(C=O)C2(C)CCCC(C)(C)C12` (stereo unspecified), for which the TGI in assay [1] stood at 3.36 µM; in assay [2], 5.44 µM; in assay [8], 3.77 µM; in [9], 8.42 µM; in [15], 3.85 µM; in assay [4], 13.6 µM. The TGI in assay [13] was 1.58 µM; in assay [5], 2.33 µM; in assay [10] it was 4.3 µM; in [11] it was 2.24 µM; in assay [7], 5.11 µM.
Consider `COC(=O)c1ccccc1/C=C1\Cc2c(C)c3c(c(C)c2C1=O)CCC3`, for which the concentration for total growth inhibition (TGI) in [4], in [5], in assay [6] and in assay [14] was over 100 µM in each case.
Turning to `CCSc1nnc(Sc2c3ccccc3nc3ccccc23)s1`, the concentration for total growth inhibition (TGI) is over 100 µM in assay [4], over 100 µM in assay [5], over 100 µM in [6] and 31.7 µM in [14].
On to `CC12Nc3c(Cl)cc(Cl)cc3N1C(=O)c1ccccc12` (stereo unspecified), for which the TGI in [4], in assay [5], in assay [6] and in assay [14] was over 100 µM in each case.
Take `CC1=NN(c2ccccc2)C2(C1)C(Cl)C(=O)N2c1nc2ccccc2s1` (stereo unspecified): the concentration for total growth inhibition (TGI) in assay [4] was over 100 µM; in [5], over 100 µM; in assay [6] it was 80 µM; in assay [14], over 100 µM.
In the case of `C1=C(CC2=C[P+](c3ccccc3)(c3ccccc3)C=C(c3ccccc3)O2)OC(c2ccccc2)=C[P+]1(c1ccccc1)c1ccccc1`, the TGI in assay [4] came out at 5.49 µM; in [5] it was 0.697 µM; in assay [6] it was 0.538 µM; in [14], 0.309 µM.
For `O=C1C2=Cc3ccccc3CCN2c2ccccc21`, in that order: over 100 µM, over 76.7 µM, 29.5 µM and 33 µM.
For `CC(C)(C)c1cc(S(=O)(=O)O)c2oc(-c3ccccc3)cc(=O)c2c1`, in that order: over 100 µM, over 100 µM, over 100 µM and over 100 µM.
In the case of `C=CCN1C(=O)/C(=C/c2ccc(Cl)cc2)N=C1SC/C=C/C`, the TGI is over 100 µM in assay [4], over 100 µM in [5], 46.7 µM in assay [6] and over 100 µM in [14].
With `NC(=O)NC1NC(=O)NC1=O` (stereo unspecified), the TGI in [4], in assay [5], in assay [6] and in assay [14] was over 100 µM throughout.
On to `Cc1nc(N)c(N2CCN(S(N)(=O)=O)CC2)c(=O)[nH]1`, for which the concentration for total growth inhibition (TGI) in [4], in assay [5], in assay [6] and in assay [14] was over 100 µM throughout.
`CN1CCC23c4c5ccc(Oc6nnnn6-c6ccccc6)c4OC2c2[nH]c4ccccc4c2CC3(O)C1C5` (stereo unspecified): the TGI amounted to 13.1 µM in assay [4], 3.11 µM in assay [5], 3.72 µM in assay [6] and 36.7 µM in [14].
For `CC(C)OC(=O)c1ccc(NCC2=CC(=O)C=CC2=O)cc1`, in that order: over 100 µM, 22.7 µM, 8.37 µM and 26.1 µM.
For `CSC1=N/C(=C\c2ccc(C)cc2)C(=O)N1`, in that order: over 100 µM, over 100 µM, over 100 µM and over 100 µM.
`CC(=O)NC1C(OCc2ccccc2)OC(CO)C(O)C1OC(C)C(=O)NC(C(=O)NC(CCC(=O)NCCCC(=O)Nc1ccc2c(c1)CN1C(=O)c3ccccc3C1=N2)C(N)=O)C(C)C` (stereo unspecified): the TGI in assay [4], in [5], in [6] and in [14] was over 100 µM each time.
As to `Cc1[nH]c(=O)[nH]c(=O)c1/C=C/C(=O)NC(CO)CC(C)C` (stereo unspecified), the TGI in [1], in assay [2], in assay [8], in [9], in assay [15] and in [4] was over 375 µM each time. The TGI in assay [13] is over 375 µM; in assay [5] it was over 375 µM; in assay [10] it was over 346 µM; in assay [11], over 375 µM; in assay [7] it was over 237 µM.
Regarding `O=C(Nc1ccc(Cl)cc1)c1cc(S(=O)(=O)Nc2n[nH]c(Nc3ccc4ccccc4c3)n2)c(SSc2cc(Cl)c(C(=O)Nc3ccc(Cl)cc3)cc2S(=O)(=O)Nc2n[nH]c(Nc3ccc4ccccc4c3)n2)cc1Cl`, the TGI in assay [4] is over 100 µM; in [5] it was 43 µM; in [6] it was over 68 µM; in assay [14], 61.1 µM.
For `C[C@]12CC[C@H]3[C@@H](CCC4=CC(=O)CC[C@@H]43)[C@@H]1CC[C@]2(O)C(N)=O`, in that order: over 100 µM, over 100 µM, over 100 µM and over 100 µM.
Taken in the same sequence, the figures for `NC(CSS(=O)(=O)O)=NC1CC2CCC1C2` (stereo unspecified) were over 100 µM, over 100 µM, over 100 µM and over 100 µM.
For the compound `CCC1CN2CCc3cc(OC)c(OC)cc3C2CC1CC1c2cc(OC)c(OC)cc2CCN1C(=O)C(N)Cc1ccccc1` (stereo unspecified), the total growth inhibition concentration (TGI) was found to be 14.1 µM in assay [8]; 11.6 µM in assay [3]; 5.22 µM in assay [9]; 7.85 µM in [4]; 8.11 µM in assay [12]; 6.46 µM in assay [5]. Moreover, the TGI was found to be 10.5 µM in assay [10], 11.4 µM in assay [6] and 3.52 µM in assay [7].
Turning to `N=c1c2ccccc2nc2oc3cc([N+](=O)[O-])ccc3n12`, the TGI in assay [4] is over 100 µM; in [5], over 100 µM; in assay [6], over 100 µM; in assay [14] it was 91.6 µM.
With `COc1nn(Cc2ccccn2)c2ccc([N+](=O)[O-])cc12`, the TGI in assay [4] is over 100 µM; in assay [5] it was over 100 µM; in assay [6] it was 98.4 µM; in assay [14], over 100 µM.
`C=CC(C)(C)n1cc(C2=C3OC(=O)C(c4cn(C(C)(C)C=C)c5ccccc45)=C3OC2=O)c2ccccc21`: the TGI in assay [4], in assay [5], in [6] and in assay [14] was over 100 µM throughout.
For `Cc1c(N=Nc2ccccc2)c(-c2ccccc2)n(C2OC(CO)C(O)C(O)C2O)c(=S)c1C#N` (stereo unspecified), the total growth inhibition concentration (TGI) in [4] is 21.5 µM; in assay [5], 30.6 µM; in [6], over 100 µM; in assay [14], over 100 µM.
Turning to `COC(=O)C1C2OC(C)(C)OC2CN1S(=O)(=O)c1ccc(C)cc1` (stereo unspecified), the total growth inhibition concentration (TGI) in [4], in [5], in assay [6] and in assay [14] was over 100 µM throughout.
Consider `O=C1CSC(c2ccccc2)N1c1nc2cc3sc(N4C(=O)CSC4c4ccccc4)nc3cc2s1` (stereo unspecified), for which the TGI in assay [4], in assay [5], in assay [6] and in assay [14] was over 100 µM throughout.
On to `CC(C)CCCC(C)[C@H]1CC[C@H]2n3c(nnc3-c3ccccc3)CCC[C@]12C` (stereo partly specified), for which the TGI in assay [4] was determined as 28 µM; in assay [5] it was 53.1 µM; in assay [6], 26.3 µM; in assay [14], 41.7 µM.
For `CCOC(=O)/C(C#N)=C/Nc1c(C)n(C)n(-c2ccccc2)c1=O`, in that order: over 100 µM, over 100 µM, over 100 µM and over 100 µM.
For `Cc1c2c(cc3c1C(=O)C(=O)C([C@@H](C)CO)=C3O)C(C)(C)CCC2`, in that order: over 100 µM, 57.1 µM, 56.7 µM and over 100 µM.
